Data set [1] concerns the target T1, ICE (interleukin-1β converting enzyme) (Homo sapiens, UniProt P29466).
T1 sequence (P29466 120-297 limits assumed): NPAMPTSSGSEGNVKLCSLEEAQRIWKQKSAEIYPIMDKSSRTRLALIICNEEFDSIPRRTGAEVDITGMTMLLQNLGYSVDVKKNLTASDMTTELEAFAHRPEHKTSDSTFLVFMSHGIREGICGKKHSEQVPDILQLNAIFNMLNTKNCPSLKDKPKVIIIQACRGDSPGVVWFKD
T1 sequence (P29466 317-404 limits assumed): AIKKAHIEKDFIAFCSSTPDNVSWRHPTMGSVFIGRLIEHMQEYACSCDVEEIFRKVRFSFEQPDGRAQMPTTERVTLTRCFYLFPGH
Nature of the data set: ICE Colorimetric Dose-Response (IC50) Assay. Conditions: 50 μM Ac-Tyr-Val-Ala-Asp-pNA, 60 min preincubation, pH 7.5, 25° C. Type of data set: biochemical. The procedure:
Substrate hydrolysis is monitored for 300 seconds by observing the fluorescence of released AMC using excitation at 380 nm and emission at 460 nm. Mean rates of substrate hydrolysis are evaluated by linear-regression analysis of the fluorescence vs time traces. […] ICE Colorimetric Dose-Response (IC50) Assay Diluted inhibitor stocks are prepared by two-fold serial dilution from a primary stock whose concentration is selected (based on screening results or on prior attempts at IC50 evaluation) to achieve approximately 95% inhibition in the most concentrated well. Aliquots of each dilution are transferred to a microtitre plate in triplicate. […] The activated enzyme is then aliquoted into wells containing inhibitor or vehicle, and the plate is preincubated for 60 minutes at ambient temperature. Substrate ([…]) is added to each well to a final concentration of 50 μM, and plates are placed in the microtitre plate-reader thermostated to 25° C. Beginning 5 minutes after addition of substrate, absorbance (405 nm) of wells is monitored for 1 hour, and activity is calculated as the mean rate of change in absorbance during this interval.

The target in data set [2] is T1, ICE (interleukin-1β converting enzyme). Nature of the data set: ICE inhibition, Ki, fluorescence assay with Ac-Tyr-Val-Ala-Asp-AMC. Type of data set: biochemical. The note with it: 15 μM substrate Ac-Tyr-Val-Ala-Asp-AMC; 0.24 nM ICE; reversible, competitive model. The procedure:
Substrate hydrolysis is monitored for 300 seconds by observing the fluorescence of released AMC using excitation at 380 nm and emission at 460 nm. Mean rates of substrate hydrolysis are evaluated by linear-regression analysis of the fluorescence vs time traces. […] ICE Colorimetric Dose-Response (IC50) Assay

In a further data set the target is T2, Ich-2 (Homo sapiens, UniProt P49662).
T2 sequence (P49662 81-270 limits assumed): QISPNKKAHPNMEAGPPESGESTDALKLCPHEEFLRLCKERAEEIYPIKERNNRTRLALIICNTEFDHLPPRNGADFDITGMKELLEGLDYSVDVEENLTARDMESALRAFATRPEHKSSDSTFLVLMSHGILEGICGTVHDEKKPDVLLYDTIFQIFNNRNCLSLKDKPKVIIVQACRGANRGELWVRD
T2 sequence (P49662 290-377 limits assumed): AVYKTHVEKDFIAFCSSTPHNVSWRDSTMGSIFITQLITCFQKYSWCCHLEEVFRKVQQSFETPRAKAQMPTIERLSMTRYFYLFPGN
Kind of data set: Ich-2 Colorimetric Dose-Response (IC50) Assay. The format is biochemical. The note with it: 64 nM enzyme, 60 μM Ac-Leu-Glu-Val-Asp-pNA. The procedure: Diluted inhibitor stocks are prepared by two-fold serial dilution from a primary stock whose concentration is selected (based on screening results or on prior attempts at IC50 evaluation) to achieve approximately 95% inhibition in the most concentrated well. Aliquots of each dilution are transferred to a microtitre plate in triplicate.
ICE enzyme is diluted to approximately 24 nM in HGE buffer (100 mM Hepes pH 7.5, 0.5 mM EDTA, 20% glycerol, 0.1% Bovine Serum Albumin (BSA), and activated by adding dithiothreitol (DTT) to a final concentration of 5 mM. The activated enzyme is then aliquoted into wells containing inhibitor or vehicle, and the plate is preincubated for 60 minutes at ambient temperature. Substrate (Ac-Tyr-Val-Ala-Asp-pNA) is added to each well to a final concentration of 50 μM, and plates are placed in the microtitre plate-reader thermostated to 25° C. Beginning 5 minutes after addition of substrate, absorbance (405 nm) of wells is monitored for 1 hour, and activity is calculated as the mean rate of change in absorbance during this interval.
Ich-2 Colorimetric Dose-Response (IC50 Assay
Inhibition of Ich-2 enzyme is assayed as described above for ICE, except that enzyme is used at 64 nM, and 60 μM of the Ich-2-specific substrate Ac-Leu-Glu-Val-Asp-pNA is used instead of the ICE substrate Ac-Tyr-Val-Ala-Asp-pNA.

Data set [3] has as its system IL-1β production in human peripheral blood mononuclear cells (PBMCs). Nature of the data set: inhibition of LPS-stimulated IL-1β production in human PBMCs (ELISA). The format is cell-based. The note with it: LPS stimulated overnight, mature IL-1β by ELISA. The text has this: (§1) Further evidence that compounds of Formula I are inhibitors of ICE is provided by their ability to inhibit IL-1β production in human peripheral blood mononuclear cells (PBMCs) as described herein. PBMCs are isolated from heparinized blood by centrifugation over a ficoll cushion, then washed three times with phosphate-buffered saline. PBMCs are suspended in a medium containing RPMI 1640 with glutamine, penicillin, streptomycin and 2% human AB serum, then plated at 10^6 cells per well in 96 well flat bottom plates. PBMCs are stimulated overnight with 10 ngmL of lipopolysaccharide (LPS, E. coli strain 0111:B4; Calbiochem) in the presence or absence of a compound of Formulas I or II. Medium is harvested and the level of mature IL-1β was determined using an ELISA kit from R & D Systems. Cells were cultured for an additional 4 hours in the presence of 3-(4,5-dimethylthiazol-2-yl)-2,5-diphenyltetrazolium bromide (MTT) to determine viability.

The next data set can be described thus: PBMC viability (MTT). Type of data set: cell-based. The note with it: human PBMCs, additional 4 hours, read-out: PBMC TC50.
Description: as §1

SMILES strings stand for the structures. Like-named read-outs stand apart in the source and are kept apart here.

In general, IC50 refers to the concentration that gives 50% inhibition. One may read the Ki as a dissociation constant, usually derived from enzyme kinetics or from competition with a known ligand.

With `O=C(O)C[C@H](NC(=O)OCc1ccccc1)C(=O)CON1CCCC1=O` [Example 2, 3-Benzyloxycarbonylamino-4-oxo-5-(2-oxo-pyrrolidin-1-yloxy)-pentanoic acid], the IC50 in data set [1] worked out at 397 µM. For the same molecule, affinity in data set [2] was put at a Ki of 87 µM.

On to `COC(=O)CC1CCCC2CC(=O)N(OCC(=O)C(CC(=O)O)NC(=O)C(C)NC(=O)C(NC(=O)OCc3ccccc3)C(C)C)C12` (centres unmarked) [Example 7], for which the IC50 stood at 0.026 µM in data set [1], 0.14 µM at Ich-2 and 4.8 µM in data set [3] (read-out: PBMC IC50). The same molecule had a Ki in data set [2] of 0.007 µM.

Consider `COC(=O)CC1CCCC2CC(=O)N(OCC(=O)[C@H](CC(=O)O)NC(=O)OCc3ccccc3)C12` (some centres unmarked) [Example 5, 3-Benzyloxycarbonylamino-5-(7-methoxycarbonylmethyl-2-oxo-octahydro-indol-1-yloxy)-4-oxo-pentanoic acid], for which the IC50 amounted to 80 µM in data set [1], 34 µM against Ich-2 and 883 µM in data set [3] (PBMC). Besides, the Ki in data set [2] was 15 µM.

Regarding `O=C(O)CC(NC(=O)OCc1ccccc1)C(=O)CONC(=O)Cc1ccccc1` (centres unmarked) [Example 1, 3-Benzyloxycarbonylamino-4-oxo-5-phenylacetylaminooxy-pentanoic acid], the IC50 in data set [1] worked out at 260 µM; in data set [3] (PBMC), 817 µM. Besides, in data set [2], the Ki was 79 µM.

Take `O=C(O)CC(NC(=O)OCc1ccccc1)C(=O)CON1C(=O)CC2CCCCC21` (centres unmarked) [Example 6]: the IC50 in data set [1] is 37 µM. Further, the Ki in data set [2] was 9.2 µM.

Consider `O=C(O)C[C@H](NC(=O)OCc1ccccc1)C(=O)CON1C(=O)C2C3C=CC(O3)C2C1=O` (some centres unmarked) [Example 3, 3-Benzyloxycarbonylamino-5-(3,5-dioxo-10-oxa-4-aza-tricyclo[5.2.1.0^2,6]dec-8-en-4-yloxy)-4-oxo-pentanoic acid], for which the concentration for half-maximal inhibition (IC50) in data set [1] was 0.46 µM; at Ich-2, 0.1 µM; in data set [3] (PBMC), 1000 µM. In addition, the CC50 at 4 h in “PBMC viability (MTT)” is 1000 µM. The same molecule yielded a Ki in data set [2] of 2.1 µM.

Regarding `CC(NC(=O)C(NC(=O)OCc1ccccc1)C(C)C)C(=O)NC(CC(=O)O)C(=O)CON1C(=O)Cc2ccccc21` (centres unmarked) [Example 8, 3-[2-(2-benzyloxicarbonylamino-3-methyl-butyrylamino)-propionylamino]-4-oxo-5-(2-oxo-2,3-dihydro-indol-1-yloxy)-pentanoic acid], the values for the IC50 (in data set [1]; on Ich-2; in data set [3] (PBMC)) were 0.003 µM, 0.005 µM and 3 µM, respectively. The Ki in data set [2] came to 0.002 µM.

On to `O=C(O)CC(NC(=O)OCc1ccccc1)C(=O)CON1C(=O)Cc2ccccc21` (centres unmarked) [Example 4, 3-Benzyloxycarbonylamino-5-(2-oxo-2,3-dihydro-indol-1-yloxy)-4-oxo-pentannic acid], for which the IC50 in data set [1] stood at 3.1 µM; at Ich-2, 0.079 µM; in data set [3] (PBMC) it was 1000 µM. For the same molecule, in the data set “PBMC viability (MTT)”, the CC50 at 4 h amounted to 1000 µM. For the same molecule, in data set [2], the Ki was 1.6 µM.

Values taken from patent US5919790A, “Hydroxamate inhibitors of interleukin-1β converting enzyme” (Warner-Lambert Company, priority 1997, dated 1999).
